Source: patent publication US9957272B2, “3-hydroxypyrrolidine inhibitors of 5′-methylthioadenosine phosphorylase and nucleosidase” (priority 2009, dated 2018)
Read-outs that look alike come from different tables or passages of the source.

Tests used:
human MTAP = biological target: T1, human MTAP (Homo sapiens, UniProt Q13126); experiment: Inhibition of human MTAP, continuous spectrophotometric assay; format: biochemical
T1 construct: made in house
T1 sequence (Q13126 1-283): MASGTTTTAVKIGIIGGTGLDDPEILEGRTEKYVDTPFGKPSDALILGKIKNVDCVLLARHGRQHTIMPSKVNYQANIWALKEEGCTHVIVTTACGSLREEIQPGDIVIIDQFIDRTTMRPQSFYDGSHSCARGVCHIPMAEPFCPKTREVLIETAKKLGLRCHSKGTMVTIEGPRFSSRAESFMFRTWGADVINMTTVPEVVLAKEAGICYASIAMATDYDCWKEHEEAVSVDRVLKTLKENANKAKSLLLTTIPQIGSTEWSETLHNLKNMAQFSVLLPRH
Excerpt: Continuous spectrophotometric assays are used to characterize the compounds of the invention and […] inhibition of MTAP.

E. coli MTAN = biological target: T2, E. coli MTAN (Escherichia coli, UniProt P0AF12); experiment: biochemical; format: biochemical
T2 construct: made in house
Procedure: After removal of cell debris by centrifugation, the soluble cell lysates are loaded onto nickel-charged chelating Sepharose (GE Healthcare) and washed with lysis buffer containing 20-150 mM imidazole. The 6His-MTANs are eluted in 250 mM imidazole, desalted using a Sephadex G-15 (GE Healthcare) gel filtration column, equilibrated with low salt buffer (100 mM HEPES, 30 mM KCL, pH 7.6) and concentrated to 40 mg/mL.
Briefly, all experiments are carried out at 25° C., in 1 mL total reaction volume containing 100 mM HEPES buffer, pH 7.5 and 50 mM KCl with 5′-deoxymethylthioadenosine (MTA) as substrate. […] For measuring dissociation constant (Kd) of inhibitors, a xanthine oxidase-coupled assay is carried out. […] Control experiments are carried out in the absence of either inhibitor or MTAN.
[formula] where vs^t and vs are steady state rates in the presence, and absence of inhibitor, respectively; Km is substrate Michaelis constant which is obtained as described above; [S] and [I] are the concentrations of the substrate MTA and inhibitor, respectively. If the concentration of inhibitor is smaller than 10-fold concentration of enzymes, the following correction is then applied: r=I′−(1−v0′/v0)Et
All data fitting is carried out with KaleidaGraph™ ver. 3.5 (Synergy Software).

[1] = 25° C., pH 7.5, MTA as substrate, read-out: Inhibition (Ki) E. coli MTAN
[2] = read-out: Inhibition (Ki) Human MTAP

| Ki (human MTAP) [nM] | SMILES | also measured |
| --- | --- | --- |
| 4.3 ± 0.6 | Nc1ncnc2c(CN3C[C@@H](O)[C@H](c4ccccc4)C3)c[nH]c12 (racemic) [Example 1, (±)-trans-1-[(9-Deaza-adenin-9-yl)methyl]-3-hydroxy-4-phenylpyrrolidine] |  |
|  | C#C[C@@H]1CN(Cc2c[nH]c3c(N)ncnc23)C[C@H]1O (racemic) [Example 7, (±)-3,4-trans-1-[(9-Deaza-adenin-9-yl)methyl]-4-ethynyl-3-hydroxypyrrolidine] | Ki (E. coli MTAN; [1]): 0.39 ± 0.02 nM; Ki (human MTAP; [2]): 31 ± 3 nM |
| > 5000 | CC[C@H]1CN(Cc2c[nH]c3c(N)ncnc23)C[C@@H]1O [Example 12] |  |
| 14.3 ± 1.7 | C=CC[C@@H]1CN(Cc2c[nH]c3c(N)ncnc23)C[C@H]1O (racemic) [Example 6, (±)-trans-4-Allyl-1-[(9-deaza-adenin-9-yl)methyl]-3-hydroxypyrrolidine] |  |
|  | Nc1ncnc2c(CN3C[C@@H](O)[C@H](c4cn(Cc5ccccc5)nn4)C3)c[nH]c12 (racemic) [Example 14, (±)-trans-4-(1-Benzyl-1H-1,2,3-triazol-4-yl)-1[(9-deaza-adenin-9-yl)methyl]-3-hydroxypyrrolidine] | Inhibition of Human MTAP (human MTAP; at 2.5 μM): ^a (indicates no inhibition observed at 2.5 μM) |
| 8.7 ± 1 | C=C[C@@H]1CN(Cc2c[nH]c3c(N)ncnc23)C[C@H]1O (racemic) [Example 5, (±)-trans-1-[(9-Deaza-adenin-9-yl)methyl]-3-hydroxy-4-vinylpyrrolidine] |  |
| 71 ± 5 | Nc1ncnc2c(CN3C[C@@H](CCCSCc4ccccc4)[C@H](O)C3)c[nH]c12 (racemic) [Example 16, (±)-trans-4-[3-(Benzylthio)propyl]-1-[(9-deaza-adenin-9-yl)methyl]-3-hydroxypyrrolidine] | Selectivity for bacterial MTAN (E. coli MTAN): some selectivity for bacterial MTAN |
| > 5000 | Nc1ncnc2c(CN3C[C@@H](CC4CCCCC4)[C@H](O)C3)c[nH]c12 (racemic) [Example 2, (±)-trans-4-(Cyclohexylmethyl)-1-[(9-deaza-adenin-9-yl)methyl]-3-hydroxy-pyrrolidine] |  |
|  | Nc1ncnc2c(CN3C[C@@H](O)[C@H](c4c[nH]nn4)C3)c[nH]c12 (racemic) [Example 15, (±)-trans-1-[(9-Deaza-adenin-9-yl)methyl]-3-hydroxy-4-(1H-1,2,3-triazol-4-yl)pyrrolidine] | Ki (E. coli MTAN; [1]): 2 ± 0.2 nM; Ki (human MTAP; [2]): 59 ± 8 nM |
| 5.8 ± 0.7 | Nc1ncnc2c(CN3C[C@@H](O)[C@H](C4CC4)C3)c[nH]c12 (racemic) [Example 4, (±)-trans-4-Cyclopropyl-1-[(9-deaza-adenin-9-yl)methyl]-3-hydroxypyrrolidine] |  |
| 6 ± 0.4 | CC(C)C[C@@H]1CN(Cc2c[nH]c3c(N)ncnc23)C[C@H]1O (racemic) [Example 9, (±)-trans-1-[(9-Deaza-adenin-9-yl)methyl]-3-hydroxy-4-isobutylpyrrolidine] |  |
| 2.4 ± 0.4 | Nc1ncnc2c(CN3C[C@@H](O)[C@H](C4CCCC4)C3)c[nH]c12 (racemic) [Example 13, (±)-trans-4-Cyclopentyl-1-[(9-deaza-adenin-9-yl)methyl]-3-hydroxypyrrolidine] |  |
|  | CCCC[C@H]1CN(Cc2c[nH]c3c(N)ncnc23)C[C@@H]1O [Example 17, (3R,4S)-4-Butyl-1-[(9-deaza-adenin-9-yl)methyl]-3-hydroxypyrrolidine] | Ki (human MTAP; [2]): 0.55 ± 0.07 nM |

| SMILES | Ki (human MTAP) [nM] | also measured |
| --- | --- | --- |
| CCCC[C@@H]1CN(Cc2c[nH]c3c(N)ncnc23)C[C@H]1O (racemic) [Example 8, (±)-trans-1-[(9-Deaza-adenin-9-yl)methyl]-4-butyl-3-hydroxypyrrolidine] | > 5000 | Ki (E. coli MTAN; [1]): 0.051 ± 0.003 nM |
| CC[C@@H]1CN(Cc2c[nH]c3c(N)ncnc23)C[C@H]1O (racemic) [Example 11, (±)-trans-1-[(9-Deaza-adenin-9-yl)methyl]-4-ethyl-3-hydroxypyrrolidine] | 8.6 ± 1 | Ki (E. coli MTAN): 0.31 ± 0.02 nM |
| CC[C@H]1CN(Cc2c[nH]c3c(N)ncnc23)C[C@H]1O (racemic) [Example 18, (±)-cis-1-[(9-Deaza-adenin-9-yl)methyl]-4-ethyl-3-hydroxypyrrolidine] | 34 ± 3 | Ki (E. coli MTAN; [1]): 1.8 ± 0.3 nM |
| CCC(CC)[C@@H]1CN(Cc2c[nH]c3c(N)ncnc23)C[C@H]1O (racemic) [Example 10, (±)-trans-1-[(9-Deaza-adenin-9-yl)methyl]-3-hydroxy-4-(pent-3-yl)pyrrolidine] | > 5000 | Ki (E. coli MTAN): 0.7 ± 0.1 nM |
